From patent US20150185241A1, “Tilidine Immunodetection” (Randox Laboratories Limited, priority 2013, published 2015)
Structures can show the parent of a compound that is named as a salt.

How the values were obtained:
[1] = test system: tilidine-specific antibody raised from Immunogen-II; assay: Competitive ELISA (Example 8): different Ig fraction of antiserum raised to Immunogen II, hapten-HRP conjugate of Example 6 as detecting agent; format: binding; settings: for % cross-reactivity: relative to tilidine HCl = 100; for % cross-reactivity / IC50: different Ig fraction (Example 8); for IC50: standard concentration which produces 50% B/Bo
Method: The wells of an enhanced binding 96 well polystyrene microtitre plate were coated with a different Ig fraction (to that exemplified in Example 7) of the antiserum raised to Immunogen II (N-(carboxypropyl)nortilidine-BTG—example 5), diluted in 10 mMTris, pH 8.5 (125 μl/well). The appropriate antibody coating dilution was determined using standard ELISA checkerboard techniques. The plate was incubated for 2 hours at 37° C., washed 4 times over 10 minutes with Tris buffered saline, containing Tween 20 (TBST) and tapped dry. Standard solutions of tilidine hydrochloride (a mixture of the two trans isomers—the 1R, 2S and the 1S, 2R trans isomers) and bisnortilidine hydrochloride (a mixture of the two trans isomers—the 1R, 2S and the 1S, 2R trans isomers) were prepared in TBST at 0, 0.313 ng/ml, 0.625 ng/ml, 1.25 ng/ml, 2.5 ng/ml, 5 ng/ml, 10 ng/ml and 20 ng/ml and 50 μl of each was added to the appropriate wells. 75 μl of conjugate of example 6 (hapten-HRP), diluted in Tris buffer (pH7.2) containing EDTA, D-mannitol, sucrose, thimerosal and BSA was added to each of the wells. The appropriate dilution of conjugate was also determined using standard ELISA checkerboard techniques. The plate was incubated at 25° C. for 1 hour. Excess unbound conjugate was removed by washing 6 times over a 10-15 minute period with TBST. 125 μl of tetramethylbenzidine (TMB) substrate solution was added to each well of the plate that was then incubated for 20 minutes in the dark at room temperature. The reaction was terminated by the addition of 125 μl of 0.2M H2SO4 to each well. The absorbance was then measured at 450 nm using a microtitre plate reader.

[2] = test system: tilidine-specific antibody raised from Immunogen-II; assay: Competitive ELISA (Example 7): Ig fraction of antiserum raised to Immunogen II, hapten-HRP conjugate of Example 6 as detecting agent; format: binding
Method: The wells of an enhanced binding 96 well polystyrene microtitre plate were coated with the Ig fraction of the antiserum raised to Immunogen II (N-(carboxypropyl)nortilidine-BTG—example 5), diluted in 10 mMTris, pH 8.5 (125 μl/well). The appropriate antibody coating dilution was determined using standard ELISA checkerboard techniques. The plate was incubated for 2 hours at 37° C., washed 4 times over 10 minutes with Tris buffered saline, containing Tween 20 (TBST) and tapped dry. Standard solutions of tilidine hydrochloride (a mixture of the two trans isomers—the 1R, 2S and the 1S, 2R trans isomers) and nortilidine hydrochloride (a mixture of the two trans isomers—the 1R, 2S and the 1S, 2R trans isomers) were prepared in TBST at 0, 0.625 ng/ml, 1.25 ng/ml, 2.5 ng/ml, 5 ng/ml, 10 ng/ml, 20 ng/ml and 40 ng/ml and 50 μl of each was added to the appropriate wells. 75 μl of conjugate of example 6 (hapten-HRP), diluted in Tris buffer (pH7.2) containing EDTA, D-mannitol, sucrose, thimerosal and BSA was added to each of the wells. The appropriate dilution of conjugate was also determined using standard ELISA checkerboard techniques. The plate was incubated at 25° C. for 1 hour. Excess unbound conjugate was removed by washing 6 times over a 10-15 minute period with TBST. 125 μl of tetramethylbenzidine (TMB) substrate solution was added to each well of the plate that was then incubated for 20 minutes in the dark at room temperature. The reaction was terminated by the addition of 125 μl of 0.2M H2SO4 to each well. The absorbance was then measured at 450 nm using a microtitre plate reader.

Row | Compound | % cross-reactivity [1] | % B/Bo ([1]; standard 0.313 ng/ml) | % B/Bo ([1]; standard 0.625 ng/ml) | % B/Bo ([1]; standard 1.250 ng/ml) | % B/Bo ([1]; standard 2.500 ng/ml) | % B/Bo ([1]; standard 5.000 ng/ml) | % B/Bo ([1]; standard 10.000 ng/ml) | % B/Bo ([1]; standard 20.000 ng/ml) | IC50 [1] | % cross-reactivity ([2]; relative to tilidine HCl = 100, Ig fraction of Example 7) | % B/Bo ([2]; standard 0.625 ng/ml) | % B/Bo ([2]; standard 1.250 ng/ml) | % B/Bo ([2]; standard 2.500 ng/ml) | % B/Bo ([2]; standard 5.000 ng/ml) | % B/Bo ([2]; standard 10.000 ng/ml) | % B/Bo ([2]; standard 20.000 ng/ml) | % B/Bo ([2]; standard 40.000 ng/ml) | IC50 ([2]; standard concentration which produces 50% B/Bo, Ig fraction of Example 7)
1 | (±)-trans-ethyl 2-amino-1-phenylcyclohex-3-enylcarboxylate [Bisnortilidine HCl] | 14.73% | 86% | 82% | 76% | 68% | 59% | 50% | 39% | 10.0 ng/mL |  |  |  |  |  |  |  |  | 
2 | CCOC(=O)[C@]1(c2ccccc2)CCC=C[C@H]1N(C)C (racemic) [Tilidine HCl, (±)-trans-ethyl 2-(N,N-dimethylamino)-1-phenylcyclohex-3-enylcarboxylate] | 100% | 70% | 63% | 52% | 41% | 31% | 21% | 14% | 1.473 ng/mL | 100% | 63% | 55% | 46% | 37% | 28% | 20% | 14% | 1.820 ng/mL
